Test results from patent US20190055576A1, “USE OF HERBICIDE-TOLERANT PROTEIN” (BEIJING DABEINONG TECHNOLOGY GROUP CO., LTD., priority 2016, published 2019).

Key:
[1] = tested on: wild-type maize plants (CK2); test: Sulfometuron-methyl tolerance of wild-type maize plants, damage degree; type: in vivo; details: 120 g ai/ha
Description: The herbicide tolerance effects of Zm cytoplasmic ALT-1-02 maize plants, Zm chloroplastic ALT-1-02 maize plants, Zm cytoplasmic ALT-2-02 maize plants, Zm chloroplastic ALT-2-02 maize plants, Zm cytoplasmic ALT-3-02 maize plants, Zm chloroplastic ALT-3-02 maize plants and wild-type maize plants on Sulfometuron-methyl were detected (at V3-V4 stage), respectively.
Zm cytoplasmic ALT-1-02 maize plants, Zm chloroplastic ALT-1-02 maize plants, Zm cytoplasmic ALT-2-02 maize plants, Zm chloroplastic ALT-2-02 maize plants, Zm cytoplasmic ALT-3-02 maize plants, Zm chloroplastic ALT-3-02 maize plants and wild-type maize plants were respectively taken and sprayed with Sulfometuron-methyl (120 g ai/ha, 4-fold field concentration) and a blank solvent (water). The damage degree caused by the herbicide was measured for each plant according to the plant growth status 3 days after spraying (3 DAT), 7 days after spraying (7 DAT), 14 days after spraying (14 DAT) and 21 days after spraying (21 DAT), respectively: considering a growth status equivalent to that of the untreated plants as having a damage degree of 0%; considering conditions of leaves being partially chlorotic and yellow but substantially not affecting the plant normal growth as having a damage degree of 50%; and considering the whole plant being purple and dying as having a damage degree of 100%. There were 2 strains in Zm cytoplasmic ALT-1-02 maize plants in total (S13 and S14), 2 strains in Zm chloroplastic ALT-1-02 maize plants in total (S15 and S16), 2 strains in Zm cytoplasmic ALT-2-02 maize plants in total (S17 and S18), 2 strains in Zm chloroplastic ALT-2-02 maize plants in total (S19 and S20), 2 strains in Zm cytoplasmic ALT-3-02 maize plants in total (S21 and S22), 2 strains in Zm chloroplastic ALT-3-02 maize plants in total (S23 and S24), and 1 strain in wild-type maize plants (CK2) in total; and 10-15 plants were selected from each strain and tested.

[2] = tested on: transgenic Arabidopsis thaliana T1 plants (ALT-1-01, ALT-2-01, ALT-3-01; cytoplasmic or chloroplastic); test: Herbicide tolerance of transgenic Arabidopsis thaliana T1 plants expressing thifensulfuron hydrolase, resistance classes counted after spraying; type: in vivo; details: for Highly resistant (number of plants with growth status consistent with blank solvent group) / Moderately resistant (number of plants with bolting height less than 1/2 of blank solvent group) / Non-resistant (number of plants dead) / Poorly resistant (number of plants still not capable of bolting): 1-fold field concentration (g ai/ha: Sulfometuron-methyl 30, iodosulfuron-methyl 10, mesosulfuron 14, oxasulfuron 60), 14 days after spraying
Description: T1 transformants were initially selected from the background of untransformed seeds using a glufosinate selection scheme. About 40000 T1 seeds were screened, and 380 T1 positive transformants (PAT gene) were identified with a transformation efficiency of about 0.95%. The plants that were transformed with the recombinant expression vector DBN100632 were Arabidopsis thaliana plants having an ALT-1-01 nucleotide sequence located in the cytoplasm introduced (At cytoplasmic ALT-1-01), and the plants that were transformed with the recombinant expression vector DBN100631 were Arabidopsis thaliana plants having an ALT-1-01 nucleotide sequence located in the chloroplast introduced (At chloroplastic ALT-1-01); the plants that were transformed with the recombinant expression vector DBN100634 were Arabidopsis thaliana plants having an ALT-2-01 nucleotide sequence located in the cytoplasm introduced (At cytoplasmic ALT-2-01), and the plants that were transformed with the recombinant expression vector DBN100633 were Arabidopsis thaliana plants having an ALT-2-01 nucleotide sequence located in the chloroplast introduced (At chloroplastic ALT-2-01); and the plants that were transformed with the recombinant expression vector DBN100636 were Arabidopsis thaliana plants having an ALT-3-01 nucleotide sequence located in the cytoplasm introduced (At cytoplasmic ALT-3-01), and the plants that were transformed with the recombinant expression vector DBN100635 were Arabidopsis thaliana plants having an ALT-3-01 nucleotide sequence located in the chloroplast introduced (At chloroplastic ALT-3-01). The herbicide tolerance effects of At cytoplasmic ALT-1-01 T1 plants, At chloroplastic ALT-1-01 T1 plants, At cytoplasmic ALT-2-01 T1 plants, At chloroplastic ALT-2-01 T1 plants, At cytoplasmic ALT-3-01 T1 plants, At chloroplastic ALT-3-01 T1 plants and wild-type Arabidopsis thaliana plants on Sulfometuron-methyl were detected (14 days after sowing), respectively.
At cytoplasmic ALT-1-01 T1 plants, At chloroplastic ALT-1-01 T1 plants, At cytoplasmic ALT-2-01 T1 plants, At chloroplastic ALT-2-01 T1 plants, At cytoplasmic ALT-3-01 T1 plants, At chloroplastic ALT-3-01 T1 plants and wild-type Arabidopsis thaliana plants were sprayed with Sulfometuron-methyl (30 g ai/ha, 1-fold field concentration) and a blank solvent (water), respectively. Plants were counted for the resistance situations 14 days after spraying: those having a consistent growth status with the blank solvent (water) group after 14 days were classified as highly resistant plants, those having a bolting height less than ½ of that of the blank solvent (water) group after 14 days were classified as moderately resistant plants, those still not capable of bolting after 14 days were classified as poorly resistant plants, and those dead after 14 days were classified as non-resistant plants. Since each Arabidopsis thaliana T1 plant was an independent transformation event, a significant difference in individual T1 responses could be expected at a given dose.
At cytoplasmic ALT-1-01 T1 plants, At chloroplastic ALT-1-01 T1 plants, At cytoplasmic ALT-2-01 T1 plants, At chloroplastic ALT-2-01 T1 plants, At cytoplasmic ALT-3-01 T1 plants, At chloroplastic ALT-3-01 T1 plants and wild-type Arabidopsis thaliana plants in Example 4 were sprayed with iodosulfuron-methyl (10 g ai/ha, 1-fold field concentration), mesosulfuron (14 g ai/ha, 1-fold field concentration) and oxasulfuron (60 g ai/ha, 1-fold field concentration), respectively, in addition to Sulfometuron-methyl (30 g ai/ha, 1-fold field concentration) and the blank solvent (water). […]

[3] = At chloroplastic ALT-1-01 T1 plants
[4] = At chloroplastic ALT-2-01 T1 plants
[5] = At chloroplastic ALT-3-01 T1 plants
[6] = At cytoplasmic ALT-1-01 T1 plants
[7] = At cytoplasmic ALT-2-01 T1 plants
[8] = At cytoplasmic ALT-3-01 T1 plants

COC(=O)c1ccccc1S(=O)(=O)NC(=O)Nc1nc(C)cc(C)n1 [Sulfometuron-methyl, 2-(4,6-dimethylpyrimidine-2-amino-formamido-sulfonyl) methyl benzoate]
Average damage % 3DAT ([1]; CK2 (wild-type maize), 4-fold field concentration, 3 days after spraying): 44%
Average damage % 7DAT ([1]; CK2 (wild-type maize), 4-fold field concentration, 7 days after spraying): 87%
Average damage % 14DAT ([1]; CK2 (wild-type maize), 4-fold field concentration, 14 days after spraying): 100%
Average damage % 21DAT ([1]; CK2 (wild-type maize), 4-fold field concentration, 21 days after spraying): 100%
herbicide tolerance of wild-type plants ([1]; wild-type maize plants): not tolerant
Highly resistant (number of plants with growth status consistent with blank solvent group) [2, 3]: 27
Moderately resistant (number of plants with bolting height less than 1/2 of blank solvent group) [2, 3]: 0
Non-resistant (number of plants dead) [2, 3]: 1
Poorly resistant (number of plants still not capable of bolting) [2, 3]: 0
Highly resistant (number of plants with growth status consistent with blank solvent group) [2, 4]: 29
Moderately resistant (number of plants with bolting height less than 1/2 of blank solvent group) [2, 4]: 0
Non-resistant (number of plants dead) [2, 4]: 0
Poorly resistant (number of plants still not capable of bolting) [2, 4]: 1
Highly resistant (number of plants with growth status consistent with blank solvent group) [2, 5]: 27
Moderately resistant (number of plants with bolting height less than 1/2 of blank solvent group) [2, 5]: 0
Non-resistant (number of plants dead) [2, 5]: 1
Poorly resistant (number of plants still not capable of bolting) [2, 5]: 0
Highly resistant (number of plants with growth status consistent with blank solvent group) [2, 6]: 23
Moderately resistant (number of plants with bolting height less than 1/2 of blank solvent group) [2, 6]: 2
Non-resistant (number of plants dead) [2, 6]: 1
Poorly resistant (number of plants still not capable of bolting) [2, 6]: 1
Highly resistant (number of plants with growth status consistent with blank solvent group) [2, 7]: 24
Moderately resistant (number of plants with bolting height less than 1/2 of blank solvent group) [2, 7]: 0
Non-resistant (number of plants dead) [2, 7]: 3
Poorly resistant (number of plants still not capable of bolting) [2, 7]: 2
Highly resistant (number of plants with growth status consistent with blank solvent group) [2, 8]: 22
Moderately resistant (number of plants with bolting height less than 1/2 of blank solvent group) [2, 8]: 1
Non-resistant (number of plants dead) [2, 8]: 3
Poorly resistant (number of plants still not capable of bolting) [2, 8]: 1
herbicide tolerance conferred by the thifensulfuron hydrolase (ALT-1, ALT-2 and ALT-3) ([2]; transgenic Arabidopsis thaliana T1 plants, 30 g ai/ha): conferred Sulfometuron-methyl herbicide tolerance to individual Arabidopsis thaliana plants
